Patent US9695198B2, “Factor IXa inhibitors” (MERCK SHARP & DOHME CORP., priority 2012, dated 2017)

The compounds below were run against Factor IXa (Homo sapiens, UniProt P00740) (assay: Determination of inhibitory activity against Factor IXa (cleavage of fluorescent peptide CH3SO2-D-CHG-Gly-Arg-AFC)). Settings: Factor IXa Inhibition table; low enzyme format; read-out: FIXa Low Enzyme.
Type: biochemical
Description: Determination of Inhibitory Activity Against Factor IXa
Formation of a clot to stem bleeding at a site of blood vessel injury involves the coordinated activity of a group of plasma proteins that initiate and propagate fibrin formation and subsequently protect fibrin from premature degradation. Factor IX is a key component of the plasma system that forms a fibrin clot at a site of vascular injury. The activity of Factor IXa is measured by monitoring the cleavage of the fluorescent peptide, CH3SO2-D-CHG-Gly-Arg-AFC.AcOH (“CHG” is cyclohexyl-glycine and “AFC” is trifluoro aminomethyl coumarin). Factor IXa cleaves the amide bond between Arg and AFC, thereby releasing the AFC fluorophore. The free AFC can be detected with a fluorescence detector at an excitation wavelength of 405 nm and emission wavelength of 510 nm.

Chain of Factor IXa (P00740 227-461 limits assumed): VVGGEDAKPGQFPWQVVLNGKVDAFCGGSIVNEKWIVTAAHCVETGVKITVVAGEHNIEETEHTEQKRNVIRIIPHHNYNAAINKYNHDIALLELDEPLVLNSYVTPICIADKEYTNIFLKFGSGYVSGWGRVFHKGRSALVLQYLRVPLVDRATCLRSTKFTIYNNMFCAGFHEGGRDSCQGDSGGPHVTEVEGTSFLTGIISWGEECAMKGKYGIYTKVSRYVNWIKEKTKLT
Chain of Factor IXa (P00740 47-191 partner limits assumed): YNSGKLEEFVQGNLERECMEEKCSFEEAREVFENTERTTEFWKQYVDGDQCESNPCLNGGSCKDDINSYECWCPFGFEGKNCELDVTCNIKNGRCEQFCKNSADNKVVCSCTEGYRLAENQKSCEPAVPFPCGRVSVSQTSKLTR

Compound	IC50 [nM]
Cc1cc(N2CCO[C@H]([C@@H](O)c3nc(=O)c4c(ccc5c(N)nsc54)[nH]3)C2=O)nn1-c1ccnc(C(F)(F)F)c1 [Example 8, (R)-2-((S)-(3-Amino-9-oxo-6,9-dihydroisothiazolo[5,4-f]quinazolin-7-yl)(hydroxy)methyl)-4-(5-methyl-1-(2-(trifluoromethyl)pyridin-4-yl)-1H-pyrazol-3-yl)morpholin-3-one]	17.8
Nc1nsc2c1ccc1[nH]c([C@H](O)[C@H]3OCCN(c4ccn(-c5ccncc5)n4)C3=O)nc(=O)c12 [Example 2, (R)-2-((S)-(3-Amino-9-oxo-6,9-dihydroisothiazolo[5,4-f]quinazolin-7-yl)(hydroxy)methyl)-4-(1-(pyridin-4-yl)-1H-pyrazol-3-yl)morpholin-3-one]	4.65
Nc1nsc2c1ccc1[nH]c([C@H](O)[C@H]3OCCN(c4cccc(C5CC5)n4)C3=O)nc(=O)c12 [Example 20, (R)-2-((S)-(3-Amino-9-oxo-6,9-dihydroisothiazolo[5,4-f]quinazolin-7-yl)(hydroxy)methyl)-4-(6-cyclopropylpyridin-2-yl)morpholin-3-one]	88.6
Nc1nsc2c1ccc1[nH]c([C@H](O)[C@H]3OCCN(c4ccn(-c5ccnnc5)n4)C3=O)nc(=O)c12 [Example 9, (R)-2-((S)-(3-Amino-9-oxo-6,9-dihydroisothiazolo[5,4-f]quinazolin-7-yl)(hydroxy)methyl)-4-(1-(pyridazin-4-yl)-1H-pyrazol-3-yl)morpholin-3-one]	1.87
N#Cc1ccc(-n2ccc(N3CCO[C@H]([C@@H](O)c4nc(=O)c5c(ccc6c(N)nsc65)[nH]4)C3=O)n2)cc1C(F)(F)F [Example 13, 4-(3-((R)-2-((S)-(3-Amino-9-oxo-6,9-dihydroisothiazolo[5,4-f]quinazolin-7-yl)(hydroxy)methyl)-3-oxomorpholino)-1H-pyrazol-1-yl)-2-(trifluoromethyl)benzonitrile]	28.3
Nc1nsc2c1ccc1[nH]c([C@H](O)[C@H]3OCCN(c4ccn(-c5ccc(=O)n(C(F)F)c5)n4)C3=O)nc(=O)c12 [Example 10, (R)-2-((S)-(3-Amino-9-oxo-6,9-dihydroisothiazolo[5,4-f]quinazolin-7-yl)(hydroxy)methyl)-4-(1-(1-(difluoromethyl)-6-oxo-1,6-dihydropyridin-3-yl)-1H-pyrazol-3-yl)morpholin-3-one]	3.04
Cc1cc(N2CCO[C@H]([C@@H](O)c3nc(=O)c4c(ccc5c(N)nsc54)[nH]3)C2=O)nn1-c1ccncc1 [Example 3, (R)-2-((S)-(3-Amino-9-oxo-6,9-dihydroisothiazolo[5,4-f]quinazolin-7-yl)(hydroxy)methyl)-4-(5-methyl-1-(pyridin-4-yl)-1H-pyrazol-3-yl)morpholin-3-one]	11.3
Cc1cc(N2CCO[C@H]([C@@H](O)c3nc(=O)c4c(ccc5c(N)nsc54)[nH]3)C2=O)nn1C [Example 14, (R)-2-((S)-(3-Amino-9-oxo-6,9-dihydroisothiazolo[5,4-f]quinazolin-7-yl)(hydroxy)methyl)-4-(1,5-dimethyl-1H-pyrazol-3-yl)morpholin-3-one]	43.7
Nc1nsc2c1ccc1[nH]c([C@H](O)[C@H]3OCCN(c4nc(C(F)(F)F)ccc4F)C3=O)nc(=O)c12 [Example 18, (R)-2-((S)-(3-Amino-9-oxo-6,9-dihydroisothiazolo[5,4-f]quinazolin-7-yl)(hydroxy)methyl)-4-(3-fluoro-6-(trifluoromethyl)pyridin-2-yl)morpholin-3-one]	44.2
CC(=O)OC1(c2cccc(N3CCO[C@H]([C@@H](O)c4nc(=O)c5c(ccc6c(N)nsc65)[nH]4)C3=O)n2)CCC1 [Example 23, 1-(6-((R)-2-((S)-(3-Amino-9-oxo-6,9-dihydroisothiazolo[5,4-f]quinazolin-7-yl)(hydroxy)methyl)-3-oxomorpholino)pyridin-2-yl)cyclobutyl acetate]	31.5
Cc1cc(N2CCO[C@H]([C@@H](O)c3nc(=O)c4c(ccc5c(N)nsc54)[nH]3)C2=O)nn1-c1cccnc1 [Example 4, (R)-2-((S)-(3-Amino-9-oxo-6,9-dihydroisothiazolo[5,4-f]quinazolin-7-yl)(hydroxy)methyl)-4-(5-methyl-1-(pyridin-3-yl)-1H-pyrazol-3-yl)morpholin-3-one]	58.6
Nc1nsc2c1ccc1[nH]c([C@H](O)[C@H]3OCCN(c4cccc(OC(F)F)n4)C3=O)nc(=O)c12 [Example 19, (R)-2-((S)-(3-Amino-9-oxo-6,9-dihydroisothiazolo[5,4-f]quinazolin-7-yl)(hydroxy)methyl)-4-(6-(difluoromethoxy)pyridin-2-yl)morpholin-3-one]	83.3
Nc1noc2c1ccc1[nH]c([C@H](O)[C@H]3OCCN(c4ccn(-c5ccncc5)n4)C3=O)nc(=O)c12 [Example 1, 3-Amino-7-((S)-hydroxy((R)-3-oxo-4-(1-(pyridin-4-yl)-1H-pyrazol-3-yl)morpholin-2-yl)methyl)isoxazolo[5,4-f]quinazolin-9(6H)-one]	14.5
Cc1cc(N2CCO[C@H]([C@@H](O)c3nc(=O)c4c(ccc5c(N)nsc54)[nH]3)C2=O)nn1C1CCOCC1 [Example 16, (R)-2-((S)-(3-Amino-9-oxo-6,9-dihydroisothiazolo[5,4-f]quinazolin-7-yl)(hydroxy)methyl)-4-(5-methyl-1-(tetrahydro-2H-pyran-4-yl)-1H-pyrazol-3-yl)morpholin-3-one]	31.9
COc1cc(-n2nc(N3CCO[C@H]([C@@H](O)c4nc(=O)c5c(ccc6c(N)nsc65)[nH]4)C3=O)cc2C)ccn1 [Example 6, (R)-2-((S)-(3-Amino-9-oxo-6,9-dihydroisothiazolo[5,4-f]quinazolin-7-yl)(hydroxy)methyl)-4-(1-(2-methoxypyridin-4-yl)-5-methyl-1H-pyrazol-3-yl)morpholin-3-one]	58.2
CC(O)(c1cccc(N2CCO[C@H]([C@@H](O)c3nc(=O)c4c(ccc5c(N)nsc54)[nH]3)C2=O)n1)C(F)(F)F (stereo partly drawn) [Example 26, (2R)-2-((S)-(3-Amino-9-oxo-6,9-dihydroisothiazolo[5,4-f]quinazolin-7-yl)(hydroxy)methyl)-4-(6-(1,1,1-trifluoro-2-hydroxypropan-2-yl)pyridin-2-yl)morpholin-3-one]	19.3
Nc1nsc2c1ccc1[nH]c([C@H](O)[C@H]3OCCN(c4cccc(C(O)C(F)(F)F)n4)C3=O)nc(=O)c12 (stereo partly drawn) [Example 25, (2R)-2-((S)-(3-Amino-9-oxo-6,9-dihydroisothiazolo[5,4-f]quinazolin-7-yl)(hydroxy)methyl)-4-(6-(2,2,2-trifluoro-1-hydroxyethyl)pyridin-2-yl)morpholin-3-one]	11.8
CC(C)(O)c1nc(N2CCO[C@H]([C@@H](O)c3nc(=O)c4c(ccc5c(N)nsc54)[nH]3)C2=O)ccc1C(F)(F)F [Example 22, (R)-2-((S)-(3-Amino-9-oxo-6,9-dihydroisothiazolo[5,4-f]quinazolin-7-yl)(hydroxy)methyl)-4-(6-(2-hydroxypropan-2-yl)-5-(trifluoromethyl)pyridin-2-yl)morpholin-3-one]	25.6
Cc1cc(N2CCO[C@H]([C@@H](O)c3nc(=O)c4c(ccc5c(N)nsc54)[nH]3)C2=O)nn1-c1ccc(F)cc1 [Example 11, (R)-2-((S)-(3-Amino-9-oxo-6,9-dihydroisothiazolo[5,4-f]quinazolin-7-yl)(hydroxy)methyl)-4-(1-(4-fluorophenyl)-5-methyl-1H-pyrazol-3-yl)morpholin-3-one]	52.1
Nc1nsc2c1ccc1[nH]c([C@H](O)[C@H]3OCCN(c4cccc(C5(O)CCC5)n4)C3=O)nc(=O)c12 [Example 24, (R)-2-((S)-(3-Amino-9-oxo-6,9-dihydroisothiazolo[5,4-f]quinazolin-7-yl)(hydroxy)methyl)-4-(6-(1-hydroxycyclobutyl)pyridin-2-yl)morpholin-3-one]	24.8
Nc1nsc2c1ccc1[nH]c([C@H](O)[C@H]3OCCN(c4cccc(C(F)(F)F)n4)C3=O)nc(=O)c12 [Example 17, (R)-2-((S)-(3-Amino-9-oxo-6,9-dihydroisothiazolo[5,4-f]quinazolin-7-yl)(hydroxy)methyl)-4-(6-(trifluoromethyl)pyridin-2-yl)morpholin-3-one]	43.7
Nc1nsc2c1ccc1[nH]c([C@H](O)[C@H]3OCCN(c4ccn(-c5ccnc(C(F)(F)F)c5)n4)C3=O)nc(=O)c12 [Example 7, (R)-2-((S)-(3-Amino-9-oxo-6,9-dihydroisothiazolo[5,4-f]quinazolin-7-yl)(hydroxy)methyl)-4-(1-(2-(trifluoromethyl)pyridin-4-yl)-1H-pyrazol-3-yl)morpholin-3-one]	9.37
COc1cc(-n2ccc(N3CCO[C@H]([C@@H](O)c4nc(=O)c5c(ccc6c(N)nsc65)[nH]4)C3=O)n2)ccn1 [Example 5, (R)-2-((S)-(3-Amino-9-oxo-6,9-dihydroisothiazolo[5,4-f]quinazolin-7-yl)(hydroxy)methyl)-4-(1-(2-methoxypyridin-4-yl)-1H-pyrazol-3-yl)morpholin-3-one]	10.8
Nc1nsc2c1ccc1[nH]c([C@H](O)[C@H]3OCCN(c4ccn(C5CC5)n4)C3=O)nc(=O)c12 [Example 15, (R)-2-((S)-(3-Amino-9-oxo-6,9-dihydroisothiazolo[5,4-f]quinazolin-7-yl)(hydroxy)methyl)-4-(1-cyclopropyl-1H-pyrazol-3-yl)morpholin-3-one]	39.8

Same assay, conditions: table of additional examples; low enzyme format; read-out: FIXa Low Enzyme

Compound	IC50 [nM]
Nc1nccc2cc3[nH]c([C@H](O)[C@H]4OCCN(c5ccn(-c6ccncc6)n5)C4=O)nc(=O)c3cc12 [Example 28, (R)-2-((S)-(6-Amino-4-oxo-1,4-dihydropyrido[3,4-g]quinazolin-2-yl)(hydroxy)methyl)-4-(1-(pyridin-4-yl)-1H-pyrazol-3-yl)morpholin-3-one]	27.6
